Assay results published in US11524012B1, “Quinolone analogs and their salts, compositions, and method for their use” (Senhwa Biosciences, Inc., priority 2018, dated 2022).

Legend:
[1] = Pharmacokinetic parameters in preclinical species; format: in vivo, monkeys; conditions: Monkey, IV, 5.2 mg/kg, mean of 3 animals
[2] = Dose escalation study (maximum tolerated dose); format: in vivo, human; conditions: IV infusion once every three weeks
Protocol: Pharmacokinetic studies and dose escalation studies were conducted in adult patients with advanced hematologic cancers at 25, mg/m^2 (ready-to-use formulation), 50 mg/m^2 (ready-to-use formulation), 100 mg/m^2 (ready-to-use formulation), 170 mg/m^2 (lyophilized formulation), and 250 mg/m^2 (lyophilized formulation) dose levels of Compound I. Each patient received one dose over 1 hour by IV infusion, once every three weeks±2 days (Cohort 1).
Dose escalations were planned in 7 cohorts (25-450 mg/m2), in an accelerated design, with change to 3+3 design based on predefined toxicity criteria. 16 patients (6 myeloma, 2 Hodgkin lymphoma, 6 Non Hodgkin lymphoma (NHL), 1 TPLL, 1 CLL) were treated in 5 cohorts (25-250 mg/m2), for a median of 2 (1-18) cycles.
The maximum tolerated dose was determined to be 170 mg/m^2.

[3] = Partitioning to blood cells compared to plasma; format: in vitro ADME; conditions: 1 μM, human whole blood
Protocol: The plasma concentrations in the mouse are magnitude higher than in rat, dog and monkey. These trends are qualitatively similar to those seen in the plasma protein binding assays. Compound I is highly bound (>99%) to human plasma proteins, and this binding is independent of drug concentration. Compound I (1 μM) partitioning to blood cells compared to plasma was evaluated in human whole blood, and was determined to prefer plasma (˜65%) to the cellular compartment (˜30%).

[4] = Toxicokinetics in rat toxicity study (IV infusion); format: in vivo; conditions: for half-life / AUC(0-inf) / Cmax / Tmax: rat, plasma
Protocol: Rats: Pharmacokinetic properties of Compound I were evaluated in a rat toxicity study across a range of IV doses: 5, 10, and 20 mg/kg/dose administered as ready-to-use formulation (see Example 1). Compound I was administered by intravenous infusion via a catheter placed into the lateral tail vein once per week over a period of 1 hour on Days 1, 8, and 15. Blood samples for toxicokinetic (TK) analysis were collected from treated TK animals predose, within 3 minutes of end of infusion, and at 1, 3, 5, 11, 23, and 47 hours post end of infusion on Day 1 and within 3 minutes of end of infusion and 47 hours post end of infusion on Day 15. The TK parameters were determined for Compound I from the mean plasma concentrations per gender and group, using a non-compartmental method.

[5] = system: patient-derived xenografts CTG-0012, CTG-0888, HBCx-10, HBCx-14, HBCx-15; assay: Population PK-PD tumor growth inhibition model in PDX mice; format: in vivo, nu/nu mice
Text: The data from 4 additional studies (Table 29) were utilized to elucidate the relationships between Compound I exposure and antitumor activity in mice with patient-derived xenografts (PDX). These studies only included data from nu/nu immunocompromised mice in 5 different PDX models (CTG-0012, CTG0888, HBCx-10, HBCx-15, and HBCx-14).
A population analysis approach was used to simultaneous describe the kinetics of tumor growth (control) and drug inhibition effect (treatment) in nu/nu mice.11 The differential equation for the TGI model is described by Equation 7: […]
where XEN represents the xenograft compartment, kgrowth is the rate constant for tumor growth, kdrug is the rate constant for drug-induced antitumor inhibition, and fcp is the predicted unbound concentration of Compound I in plasma. In this model, the PD effect was driven using the free (not total) concentration of Compound I obtained using the developed mouse PK model. An averaged unbound fraction of 0.2% (99.8% bound) was used based on measured values for protein binding in mouse plasma. Five different xenograft types (CTG-0012, CTG-0888, HBCx-10, HBCx-14, and HBCx-15) were used in the development of the Compound I TGI model.
For PK-PD model development, Compound I concentration-time data from the same animal in mouse xenograft studies were unavailable. It was therefore assumed that all mice share equal exposures with no variability in the PK of Compound I. The parameters in these animals were fixed to the population mean values derived following development of the mouse PK model.
A population analysis approach was used to simultaneously model the kinetics of tumor growth (control xenografts) and drug-induced inhibition (treatment groups). Data from 67 nu/nu mice with implanted PDX were used for the development of the TGI model. The predicted plasma concentrations were obtained by fixing population mean values from the PK model developed in nu/nu mice. This assumption was required because drug concentrations were not available from the same animal in which tumor response was measured. […]

[6] = 1 hour IV infusion, 5 mg/kg/dose, Female, Day 1 (first dose)
[7] = 1 hour IV infusion, 5 mg/kg/dose, Male, Day 1 (first dose)
[8] = 1 hour IV infusion, 10 mg/kg/dose, Female, Day 1 (first dose)
[9] = 1 hour IV infusion, 10 mg/kg/dose, Male, Day 1 (first dose)
[10] = 1 hour IV infusion, 20 mg/kg/dose, Female, Day 1 (first dose)
[11] = 1 hour IV infusion, 20 mg/kg/dose, Male, Day 1 (first dose)

Which results are given for `Cc1cnc(CNC(=O)c2c(=O)c3ccc(N4CCCN(C)CC4)nc3n3c2sc2ccccc23)cn1` [Compound I, 2-(4-Methyl-[1,4]diazepan-1-yl)-5-oxo-5H-7-thia-1,11b-diaza-benzo[c]fluorene-6-carboxylic acid (5-methyl-pyrazin-2-ylmethyl)-amide]?
CIs [1]: 1,849 mL/hr/kg; Cmax ([1]; plasma): 668 ng/mL; half-life ([1]; plasma): 13 h; AUC(0-t) ([1]; plasma, read-out: AUC24hr): 2370 ng·h/mL; Vd ([1]; plasma, read-out: Vss): 23 L/kg; maximum tolerated dose [2]: 170 mg/m^2; partitioning to plasma [3]: ~65%; partitioning to the cellular compartment [3]: ~30%; AUC0-inf dose proportionality (in words) ([4]; IV 5-20 mg/kg/dose): approximately dose proportional; half-life ([4]; both sexes, IV infusion 5, 10, 20 mg/kg/dose, Day 1, read-out: terminal half-life): 7 to 16.8 h; AUC(0-inf) [4, 6]: 20800 ng·h/mL; Cmax [4, 6]: 2520 ng/mL; Tmax [4, 6]: 1 h; half-life ([4]; 1 hour IV infusion, 5 mg/kg/dose, Female, Day 1 (first dose), read-out: T1/2 (converted)): 9.3 h; AUC(0-inf) [4, 7]: 24500 ng·h/mL; Cmax [4, 7]: 3360 ng/mL; Tmax [4, 7]: 1 h; half-life ([4]; 1 hour IV infusion, 5 mg/kg/dose, Male, Day 1 (first dose), read-out: T1/2 (converted)): 7 h; AUC(0-inf) [4, 8]: 44800 ng·h/mL; Cmax [4, 8]: 3810 ng/mL; Tmax [4, 8]: 2 h; half-life ([4]; 1 hour IV infusion, 10 mg/kg/dose, Female, Day 1 (first dose), read-out: T1/2 (converted)): 7.6 h; AUC(0-inf) [4, 9]: 42100 ng·h/mL; Cmax [4, 9]: 4500 ng/mL; Tmax [4, 9]: 1 h; half-life ([4]; 1 hour IV infusion, 10 mg/kg/dose, Male, Day 1 (first dose), read-out: T1/2 (converted)): 8.1 h; AUC(0-inf) [4, 10]: 80600 ng·h/mL; Cmax [4, 10]: 4960 ng/mL; Tmax [4, 10]: 6 h; half-life ([4]; 1 hour IV infusion, 20 mg/kg/dose, Female, Day 1 (first dose), read-out: T1/2 (converted)): 16.8 h; AUC(0-inf) [4, 11]: 79200 ng·h/mL; Cmax [4, 11]: 6810 ng/mL; Tmax [4, 11]: 1 h; half-life ([4]; 1 hour IV infusion, 20 mg/kg/dose, Male, Day 1 (first dose), read-out: T1/2 (converted)): 11.4 h; kdrug, Proportionality constant for drug inhibition ([5]; PDX nu/nu mice, CTG-0012 reference, population mean Estimate (% RSE)): 0.0006 (7.8); kdrug, Proportionality constant for drug inhibition, % BSV ([5]; PDX nu/nu mice, between-subject variability Estimate (% RSE)): 5.8 (42.5) %; proportionality constant for drug-induced inhibition (kdrug) ([5]; driven by predicted unbound concentration): 0.0006
